Laboratory results published in US11530226B2, “Azepane inhibitors of menin-MLL interaction” (Janssen Pharmaceutica NV, priority 2016, dated 2022).
“And” between values parts separate entries of the source, which are not always exact repeats. Equal entries are not always repeated. Structures can show the parent of a compound that is named as a salt.

Assays:
[1] = target: T1, terbium chelate-labeled menin / FITC-MBM1 peptide (Menin/MLL) (Homo sapiens, UniProt O00255, T541A); assay: Menin/MLL homogenous time-resolved fluorescence (HTRF) assay; format: binding; conditions: read-out: (2) Menin HTRF assay (IC50 (nM))
T1 construct: Menin (a. a. l-610-6×his tag) was labeled with terbium cryptate as follows
T1 sequence (O00255 with tags, fused parts or gaps T541A): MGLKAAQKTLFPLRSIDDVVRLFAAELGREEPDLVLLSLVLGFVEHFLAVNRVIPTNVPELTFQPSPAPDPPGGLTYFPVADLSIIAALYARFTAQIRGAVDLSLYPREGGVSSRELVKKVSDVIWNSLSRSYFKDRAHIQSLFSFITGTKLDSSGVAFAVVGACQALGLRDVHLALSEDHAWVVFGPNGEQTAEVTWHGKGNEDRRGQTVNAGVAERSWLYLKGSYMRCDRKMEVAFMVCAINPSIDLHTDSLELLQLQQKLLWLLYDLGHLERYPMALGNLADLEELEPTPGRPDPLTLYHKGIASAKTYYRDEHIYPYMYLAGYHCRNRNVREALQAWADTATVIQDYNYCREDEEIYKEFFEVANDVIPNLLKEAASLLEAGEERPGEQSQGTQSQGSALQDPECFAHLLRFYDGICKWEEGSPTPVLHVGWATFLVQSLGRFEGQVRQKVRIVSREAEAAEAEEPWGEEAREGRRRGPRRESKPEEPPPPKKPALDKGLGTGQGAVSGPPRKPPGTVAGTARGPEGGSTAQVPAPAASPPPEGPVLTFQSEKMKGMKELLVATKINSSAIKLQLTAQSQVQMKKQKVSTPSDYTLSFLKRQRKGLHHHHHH
Protocol: 2) Menin/MLL Homogenous Time-Resolved Fluorescence (HTRF) Assay
To an untreated, white 384-well microtiter plate was added 40 nL 200× test compound in DMSO and 4 μL 2× terbium chelate-labeled menin (vide infra for preparation) in assay buffer (40 mM Tris .HCl, pH 7.5, 50 mM NaCl, 1 mM DTT and 0.05% Pluronic F-127). After incubation of test compound and terbium chelate-labeled menin for 5 min at ambient temperature, 4 μL 2×FITC-MBM1 peptide (FITC-P-alanine-SARWRFPARPGT-NH2) in assay buffer was added, the microtiter plate centrifuged at 1000 rpm for 1 min and the assay mixtures incubated for 15 min at ambient temperature. The relative amount of menin ⋅FITC-MBM1 complex present in an assay mixture is determined by measuring the homogenous time-resolved fluorescence (HTRF) of the terbium/FITC donor/acceptor fluorphore pair using a BMG Pherastar plate reader (ex. 337 nm/terbium cm. 490 nm/FITC cm. 520 nm) at ambient temperature. The degree of fluorescence resonance energy transfer (the HTRF value) is expressed as the ratio of the fluorescence emission intensities of the FITC and terbium fluorophores (P^m 520 nm//F^em 490 nm). The final concentrations of reagents in the binding assay are 100 pM terbium chelate-labeled menin, 75 nM FITC-MBM1 peptide and 0.5%) DMSO in assay buffer. Dose-response titrations of test compounds are conducted using an 11 point, three-fold serial dilution scheme, starting typically at 25 μM.
Compound potencies were determined by first calculating % inhibition at each compound concentration according to equation 1: % inhibition=((HC−LC)−(HTRF^compound−LC))/(HC−LC))*100 (Eqn 1)
Where LC and HC are the HTRF values of the assay in the presence or absence of a saturating concentration of a compound that competes with FITC-MBM1 for binding to menin, and HTRF^compound is the measured HTRF value in the presence of the test compound. HC and LC HTRF values represent an average of at least 16 replicates per plate.
Where Bottom and Top are the lower and upper asymptotes of the dose-response curve, respectively, IC50 is the concentration of compound that yields 50% inhibition of signal and h is the Hill coefficient.
Preparation of Terbium cryptate labeling of Menin: Menin (a. a. l-610-6×his tag) was labeled with terbium cryptate as follows. 2 mg of Menin was buffer exchanged into 1× phosphate buffered saline. 16 uM Menin was incubated with 4-fold molar excess NHS-terbium cryptate (Cisbio Bioassays, Bedford, Mass.) for 2 hours at room temperature. The labeled protein was purified away from free label by running the reaction over a Superdex 200 Increase 10/300 GL column at 0.75 ml/min. Peak fractions were collected, aliquoted and frozen at −80° C.

MV-4-1 1 cells (MLL-AF4) = assay: Proliferation assay (spheroid-like growth, 8 d, live-cell imaging), MV-4-11; format: cell-based, human; conditions: Homo sapiens, MV4-11, 192 h, MV-4-11 cells, absolute IC50 from AUC of confluence, read-out: (3) Spheroid assay MV-4-11 (IC50 (μM))
Protocol: The anti-proliferative effect of menin/MLL protein/protein interaction inhibitor test compounds was assessed in human leukemia cell lines. The cell lines MV-4-1 1 and MOLM14 harbor MEL translocations and express the MEL fusion proteins MLL-AF4 and MLL-AF9, respectively, as well as the wildtype protein from the second allele. […] K562 was used as a control cell line containing two MLL wildtype alleles in order to exclude compounds that display general cytotoxic effects.
MV-4-1 1 and MOLM14 were cultured in RPMI-1640 (Sigma Aldrich) supplemented with 10% fetal bovine serum (HyClone), 2 mM L-glutamine (Sigma Aldrich) and 50 μg/ml gentamycin (Gibco). K562 were propagated in RPMI-1640 (Sigma Aldrich) supplemented with 20% fetal bovine serum (HyClone), 2 mM L-glutamine (Sigma Aldrich) and 50 μg/ml gentamycin (Gibco).
In order to assess the anti-proliferative effects, 1,500 MV-4-1 1, 300 MOLM14 or 750 K562 cells were seeded in 200 μl media per well in 96-well round bottom, ultra-low attachment plates (Costar, catalogue number 7007). Cell seeding numbers were chosen based on growth curves to ensure linear growth throughout the experiment. Test compounds were added at different concentrations and the DMSO content was normalized to 0.3%>. Cells were incubated for 8d at 37° C. and 5% C02. Spheroid like growth was monitored in real-time by live-cell imaging (IncuCyteZOOM, Essenbio, 4× objective) acquiring one image every four hours for 8d. Confluence (%) as a measure of spheroid size was determined using an integrated analysis tool.
In order to determine the cumulative effect of the test compounds over time, the area under the curve (AUC) in a plot of confluence against time was calculated. Confluence at the beginning of the experiment (t=0) was used as baseline for the AUC calculation.
Absolute IC50 values were calculated according to the following procedure: % Control=(AUC sample/AUC control)*100 AUC control=mean AUC of control values(cells without compound/DMSO as vehicle control)
A non-linear curve fit was applied using the least squares (ordinary) fit method to the plot of % control versus compound concentration. Based on this, the absolute IC50 value (half maximal inhibitory concentration of the test compound causing an anti-proliferative effect of 50% relative to the vehicle control) was calculated.

| Structure (SMILES) | melting point | IC50 [1] [nM] | IC50 (MV-4-1 1 cells (MLL-AF4)) [µM] |
| --- | --- | --- | --- |
| FC(F)CN[C@@H]1CCCN(c2ncnc3sc(CC(F)(F)F)cc23)CC1 (as salt: hydrochloride) [Compound 5] | 244 °C | – | – |
| C[C@H]1CCN(c2ncnc3sc(CC(F)(F)F)cc23)CC[C@H]1NCc1ccccc1 (single isomer, unassigned) (as salt: hydrochloride) [Compound 68A] | 134 °C and 136 °C | – | – |
| CC(C)[C@H](NC1CCCN(c2ncnc3sc(CC(F)(F)F)cc23)CC1)C1CNC1 (single isomer, unassigned) (as salt: hydrochloride) [Compound 33] | 200 °C | – | – |
| Cc1ccc(CNC2CCCN(c3ncnc4sc(CC(F)(F)F)cc34)CC2)cc1 (centres unmarked) (as salt: HCl) [Compound 16] | 262 to 264 °C | – | – |
| CC(C)[C@@H](NC1CCCN(c2ncnc3sc(CC(F)(F)F)cc23)CC1)C1CNC1 (single isomer, unassigned) (as salt: hydrochloride) [Compound 34] | 188 °C | – | – |
| FC(F)(F)Cc1cc2c(N3CCC[C@@H](NCc4cccnc4)CC3)ncnc2s1 (single isomer, unassigned) [Compound 29] | – | 40 | 2.1 |
| FC(F)(F)Cc1cc2c(N3CCC[C@H](NCc4ccccc4)CC3)ncnc2s1 (as salt: HCl) [Compound 4, (S)-N-benzyl-1-(6-(2,2,2-trifluoroethyl)thieno[2,3-d]pyrimidin-4-yl)azepan-4-amine] | 230 °C | – | – |
| C[C@H]1CCN(c2ncnc3sc(CC(F)(F)F)cc23)CC[C@H]1NCc1ccccc1 (single isomer, unassigned) [Compound 68A] | – | 103 | 1.9 |
| CN(C)CCCN(Cc1ccccc1)C1CCCN(c2ncnc3sc(CC(F)(F)F)cc23)CC1 (centres unmarked) [Compound 53] | – | 204 | 2.1 |
| Fc1ccc(CNC2CCCN(c3ncnc4sc(CC(F)(F)F)cc34)CC2)c(F)c1 (centres unmarked) [Compound 7] | – | 55 | 1.6 |
| CNC(=O)c1ccc(CNC2CCCN(c3ncnc4sc(CC(F)(F)F)cc34)CC2)cc1 (centres unmarked) [Compound 49] | – | 45 | 1.1 |
| COc1ccc(C)cc1CNC1CCCN(c2ncnc3sc(CC(F)(F)F)cc23)CC1 (centres unmarked) [Compound 18] | – | 563 | 4.7 |
| CN(C)CCN(Cc1ccccc1)[C@H]1CCCN(c2ncnc3sc(CC(F)(F)F)cc23)CC1 (single isomer, unassigned) [Compound 57B] | – | 222 | 4.4 |
| Cn1ncc2c1CCC[C@@H]2N[C@@H]1CCCN(c2ncnc3sc(CC(F)(F)F)cc23)CC1 [Compound 65B] | – | 284 | 4.3 |
| Cn1cncc1CN[C@@H]1CCCN(c2ncnc3sc(CC(F)(F)F)cc23)CC1 (single isomer, unassigned) [Compound 28] | – | 149 | 3.4 |
| Cn1cc2c(n1)CCC[C@@H]2N[C@@H]1CCCN(c2ncnc3sc(CC(F)(F)F)cc23)CC1 (single isomer, unassigned) [Compound 66B] | – | 164 | 3.8 |

| Structure (SMILES) | melting point | IC50 [1] [nM] | IC50 (MV-4-1 1 cells (MLL-AF4)) [µM] |
| --- | --- | --- | --- |
| Fc1ccccc1CNC1CCCN(c2ncnc3sc(CC(F)(F)F)cc23)CC1 (centres unmarked) [Compound 8] | – | 64 | 1.6 |
| OCCN(Cc1ccccc1)C1CCCN(c2ncnc3sc(CC(F)(F)F)cc23)CC1 (centres unmarked) [Compound 50] | – | 185 | 2.3 |
| CC(C)[C@H](N[C@@H]1CCCN(c2ncnc3sc(CC(F)(F)F)cc23)CC1)C1CNC1 (single isomer, unassigned) [Compound 31] | – | 34 | 1.4 |
| Cc1ccccc1CNC1CCCN(c2ncnc3sc(CC(F)(F)F)cc23)CC1 (centres unmarked) [Compound 19] | – | 41 | 2 |
| CC(C)[C@@H](NC1CCCN(c2ncnc3sc(CC(F)(F)F)cc23)CC1)C1CNC1 (single isomer, unassigned) [Compound 34] | – | 216 | 3.2 |
| Cc1ccc(CNC2CCCN(c3ncnc4sc(CC(F)(F)F)cc34)CC2)c(C)c1 (centres unmarked) [Compound 9] | – | 36 | 1.4 |
| Cn1cc(CNC2CCCN(c3ncnc4sc(CC(F)(F)F)cc34)CC2)cn1 (single isomer, unassigned) [Compound 11A] | – | 55 | 1.6 |
| Cc1ccc(CN[C@H]2CCCN(c3ncnc4sc(CC(F)(F)F)cc34)CC2)c(C)c1 (single isomer, unassigned) [Compound 9B] | – | 22 | 0.9 |
| Cn1cc(CN(Cc2ccccc2)[C@H]2CCCN(c3ncnc4sc(CC(F)(F)F)cc34)CC2)cn1 (single isomer, unassigned) [Compound 60B] | – | 295 | 2.4 |
| Fc1cccc(CNC2CCCN(c3ncnc4sc(CC(F)(F)F)cc34)CC2)c1 (centres unmarked) [Compound 24] | – | 53 | 1.2 |
| CC(C)[C@@H](N[C@H]1CCCN(c2ncnc3sc(CC(F)(F)F)cc23)CC1)C1CNC1 (single isomer, unassigned) [Compound 36] | – | 170 | 2.5 |
| FC(F)(F)Cc1cc2c(N3CCC[C@@H](NCc4ccnnc4)CC3)ncnc2s1 (single isomer, unassigned) [Compound 30] | – | 186 | 4.45 |
| CNCc1cccc(CNC2CCCN(c3ncnc4sc(CC(F)(F)F)cc34)CC2)c1 (centres unmarked) [Compound 17] | – | 33 | 1.3 |
| CN(C)CCN(Cc1ccccc1)[C@@H]1CCCN(c2ncnc3sc(CC(F)(F)F)cc23)CC1 (single isomer, unassigned) [Compound 57A] | – | 194 | 2.8 |
| FC(F)(F)Cc1cc2c(N3CCCC(OCc4ccccc4)CC3)ncnc2s1 (centres unmarked) [Compound 44] | – | 137 | 4.3 |
